# Reference: patent US7776862B2, “Pyridyl and phenyl substituted piperazine-piperidines with CXCR3 antagonist activity” (Schering Corporation, priority 2005, dated 2010)
# Target: T1, human CXCR3 (N-delta 4) (Homo sapiens, UniProt P49682)
# T1 construct: CD8 leader; Flag tag; expressed in transfected cells; membranes used
# T1 sequence (P49682 5-368 limits assumed): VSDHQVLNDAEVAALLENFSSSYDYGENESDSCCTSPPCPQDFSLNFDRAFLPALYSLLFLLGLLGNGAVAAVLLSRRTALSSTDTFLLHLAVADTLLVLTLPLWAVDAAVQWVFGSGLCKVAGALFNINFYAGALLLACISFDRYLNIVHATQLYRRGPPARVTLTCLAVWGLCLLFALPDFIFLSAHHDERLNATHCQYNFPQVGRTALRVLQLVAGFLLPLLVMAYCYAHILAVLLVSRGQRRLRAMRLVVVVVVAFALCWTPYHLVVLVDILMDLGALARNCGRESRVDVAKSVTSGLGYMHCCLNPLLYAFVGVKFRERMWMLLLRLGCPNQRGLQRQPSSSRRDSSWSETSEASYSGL
# Assay: Human CXCR3 (N-delta 4) scintillation proximity assay (SPA), [125I] IP-10 binding
# Details: IC50 rating; Ba/F3-hCXCR3 (N-delta 4) membranes, 25 pM [125I] IP-10
# Text: The inventive compounds can readily be evaluated to determine activity at the CXCR3 receptors by known methods, such as, for example, development of a human CXCR3 (N-delta 4) Binding Assay.
# Cloning and expression of human CXCR3 (N-delta 4):
# The DNA encoding human CXCR3 was cloned by PCR using human genomic DNA (Promega, Madison, Wis.) as a template. The PCR primers were designed based on the published sequence of human orphan receptor GPR9 (1) with incorporated restriction sites, a Kozak consensus sequence, CD8 leader and Flag tag. The PCR product was subcloned into the mammalian expression vector pME18Sneo, a derivative of the SR-alpha expression vector (designated as pME18Sneo-hCXCR3 (N-delta 4).
# IL-3-dependent mouse pro-B cells Ba/F3 were transfected by electroporation in 0.4 ml Dulbecco's PBS containing 4×10^6 cells with 20 μg of pME18Sneo-hCXCR3 (N-delta 4) plasmid DNA. Cells were pulsed at 400 Volts, 100 OHMs, 960 μFd. The transfected cells were under selection with 1 mg/ml G418 (Life Technologies, Gaithersburg, Md.). […] IP-10 (NEN Life Science Products, Boston, Mass.).
# Preparation of Ba/F3-hCXCR3 (N-delta 4) membranes:
# Ba/F3 cells expressing human CXCR3 (N-delta 4) were pelleted and resuspended in the lysis buffer containing 10 mM HEPES, pH 7.5 and Complete® protease inhibitors (1 tablet per 100 ml) (Boehringer Mannheim, Indianapolis, Ind.) at a cell density of 20×10^6 cells per ml. […] Large cellular debris was removed by centrifugation at 1,000×g. Cell membrane in the supernatant was sedimented at 100,000×g. The membrane was resuspended in the lysis buffer supplemented with 10% sucrose and stored at −80° C. Total protein concentration of the membrane was determined by BCA method from Pierce (Rockford, Ill.).
# Human CXCR3 (N-delta 4) scintillation proximity assay (SPA):
# The beads were spun down, washed once, resuspended in the binding buffer and transferred to a 96-well Isoplate (Wallac, Gaithersburg, Md.). […] IP-10 with tested compounds in a series of titration were added to start the reaction.
row,Structure (SMILES),IC50
1,N#Cc1ccc(C(=O)N2CCC(N3CCN(c4ncc(C(=O)NCc5ccc(F)c(F)c5)cc4Cl)CC3)CC2)cc1 [compound 51],> 100 nM
2,O=C(NCc1cc(Cl)cc(Cl)c1)c1cnc(N2CCN(C3CCN(Cc4ccc(Cl)cc4)CC3)CC2)c(Cl)c1 [compound 52],> 100 nM
3,O=C(NCc1ccccc1)c1cnc(N2CCN(C3CCN(Cc4ccc(F)c(F)c4)CC3)CC2)c(Cl)c1 [compound 53],> 100 nM
4,COc1ccc(CN2CCC(N3CCN(c4ncc(C(=O)NCc5cccc(Cl)c5)cc4Cl)CC3)CC2)cc1 [compound 54],> 100 nM
5,O=C(NCc1ccc(F)cc1)c1cnc(N2CCN(C3CCN(Cc4ccc(F)cc4)CC3)CC2)c(Cl)c1 [compound 55],> 100 nM
6,COc1ccc(CN2CCC(N3CCN(c4ncc(C(=O)NCc5ccc(F)cc5F)cc4Cl)CC3)CC2)cc1 [compound 56],> 100 nM
7,O=C(NCc1cccc(Cl)c1)c1cnc(N2CCN(C3CCN(Cc4ccc(F)cc4)CC3)CC2)c(Cl)c1 [compound 57],> 100 nM
8,O=C(NCc1ccc(F)cc1F)c1cnc(N2CCN(C3CCN(Cc4ccc(F)cc4)CC3)CC2)c(Cl)c1 [compound 58],> 100 nM
9,O=C(NCc1ccc(Cl)cc1Cl)c1cnc(N2CCN(C3CCN(Cc4ccc(F)cc4F)CC3)CC2)c(Cl)c1 [compound 59],> 100 nM
10,O=C(NCCOc1ccccc1)c1cnc(N2CCN(C3CCN(Cc4ccc(F)cc4)CC3)CC2)c(Cl)c1 [compound 60],> 100 nM
11,N#Cc1ccc(CN2CCC(N3CCN(c4ncc(C(=O)NCc5cccc(F)c5)cc4Cl)CC3)CC2)cc1 [compound 61],> 100 nM
12,O=C(NCc1ccc(F)c(F)c1)c1cnc(N2CCN(C3CCN(Cc4ccc(Br)cc4F)CC3)CC2)c(Cl)c1 [compound 62],> 100 nM
13,COc1ccc(CN2CCC(N3CCN(c4ncc(C(=O)NCc5ccc(Cl)cc5Cl)cc4Cl)CC3)CC2)cc1 [compound 63],> 100 nM
14,N#Cc1ccc(C(=O)N2CCC(N3CCN(c4ncc(C(=O)NCc5ccc(Cl)c(Cl)c5)cc4Cl)CC3)CC2)cc1 [compound 64],> 100 nM
15,O=C(NCc1ccc(Cl)c(Cl)c1)c1cnc(N2CCN(C3CCN(Cc4ccc(Br)cc4F)CC3)CC2)c(Cl)c1 [compound 65],> 100 nM
16,O=C(NCc1ccc(C(F)(F)F)cc1)c1cnc(N2CCN(C3CCN(Cc4ccc(F)cc4)CC3)CC2)c(Cl)c1 [compound 66],> 100 nM
17,O=C(NCc1ccc(Br)cc1)c1cnc(N2CCN(C3CCN(Cc4ccc(F)cc4F)CC3)CC2)c(Cl)c1 [compound 67],> 100 nM
18,N#Cc1ccc(C(=O)N2CCC(N3CCN(c4ncc(C(=O)NCc5ccc(Br)cc5)cc4Cl)CC3)CC2)cc1 [compound 68],> 100 nM
19,N#Cc1ccc(CN2CCC(N3CCN(c4ncc(C(=O)NCc5ccc(Cl)cc5Cl)cc4Cl)CC3)CC2)cc1 [compound 69],> 100 nM
20,N#Cc1ccc(C(=O)N2CCC(N3CCN(c4ncc(C(=O)NCc5ccc(C(F)(F)F)cc5)cc4Br)CC3)CC2)cc1 [compound 70],> 100 nM
21,O=C(NCc1ccccc1)c1cnc(N2CCN(C3CCN(Cc4ccc(Cl)c(F)c4)CC3)CC2)c(Cl)c1 [compound 71],> 100 nM
22,O=C(NCc1ccccc1)c1cnc(N2CCN(C3CCN(Cc4ccc(Cl)cc4)CC3)CC2)c(Cl)c1 [compound 72],> 100 nM
23,O=C(NCc1ccc(C(F)(F)F)cc1)c1cnc(N2CCN(C3CCN(Cc4ccc(Cl)c(F)c4)CC3)CC2)c(Cl)c1 [compound 73],> 100 nM
24,CC(c1ccc([N+](=O)[O-])cc1)N1CCC(N2CCN(c3ncc(C(=O)NCc4ccc(Cl)c(Cl)c4)cc3Cl)CC2)CC1 (stereo not drawn) [compound 74],> 100 nM
25,O=C(NCc1ccccc1)c1cnc(N2CCN(C3CCN(Cc4ccc([N+](=O)[O-])cc4)CC3)CC2)c(Cl)c1 [compound 75],> 100 nM
26,CC(c1ccc([N+](=O)[O-])cc1)N1CCC(N2CCN(c3ncc(C(=O)NCc4ccc(F)c(F)c4)cc3Cl)CC2)CC1 (stereo not drawn) [compound 76],> 100 nM
27,O=C(NCc1cc(Cl)cc(Cl)c1)c1cnc(N2CCN(C3CCN(Cc4ccc(F)cc4)CC3)CC2)c(Cl)c1 [compound 77],> 100 nM

row,Structure (SMILES),IC50
1,O=C(NCc1cc(Cl)cc(Cl)c1)c1cnc(N2CCN(C3CCN(Cc4ccc(F)c(F)c4)CC3)CC2)c(Cl)c1 [compound 78],> 100 nM
2,O=C(NCc1ccc(F)cc1F)c1cnc(N2CCN(C3CCN(Cc4ccc(Br)cc4)CC3)CC2)c(Cl)c1 [compound 79],> 100 nM
3,O=C(NCc1cc(Cl)cc(Cl)c1)c1cnc(N2CCN(C3CCN(Cc4ccc(Cl)c(F)c4)CC3)CC2)c(Cl)c1 [compound 80],> 100 nM
4,N#Cc1ccc(C(=O)N2CCC(N3CCN(c4ncc(C(=O)NCc5ccc(Cl)cc5F)cc4Cl)CC3)CC2)cc1 [compound 81],> 100 nM
5,O=C(NCCCc1ccccc1)c1cnc(N2CCN(C3CCN(Cc4ccc(Cl)cc4)CC3)CC2)c(Cl)c1 [compound 82],> 100 nM
6,N#Cc1ccc(C(=O)N2CCC(N3CCN(c4ncc(C(=O)NCc5ccc(F)c(Cl)c5)cc4Cl)CC3)CC2)cc1 [compound 83],> 100 nM
7,O=C(NCc1cccc(Cl)c1)c1cnc(N2CCN(C3CCN(Cc4ccc(Cl)cc4)CC3)CC2)c(Cl)c1 [compound 84],> 100 nM
8,O=C(NCc1ccc(C(F)(F)F)cc1)c1cnc(N2CCN(C3CCN(Cc4ccc(Cl)cc4)CC3)CC2)c(Cl)c1 [compound 85],> 100 nM
9,N#Cc1ccc(CN2CCC(N3CCN(c4ncc(C(=O)NCc5ccc(F)cc5F)cc4Cl)CC3)CC2)cc1 [compound 86],> 100 nM
10,O=C(NCc1ccc(Cl)cc1)c1cnc(N2CCN(C3CCN(Cc4ccc(F)cc4F)CC3)CC2)c(Cl)c1 [compound 87],> 100 nM
11,O=C(NCc1ccc(Cl)cc1F)c1cnc(N2CCN(C3CCN(Cc4ccc(F)cc4F)CC3)CC2)c(Cl)c1 [compound 88],> 100 nM
12,O=C(NCc1cc(Cl)cc(Cl)c1)c1cnc(N2CCN(C3CCN(Cc4ccc([N+](=O)[O-])cc4)CC3)CC2)c(Cl)c1 [compound 89],> 100 nM
13,O=C(NCc1ccc(Cl)c(Cl)c1)c1cnc(N2CCN(C3CCN(Cc4ccc(F)cc4F)CC3)CC2)c(Cl)c1 [compound 90],> 100 nM
14,O=C(NCc1cccc(F)c1)c1cnc(N2CCN(C3CCN(Cc4ccc(F)c(F)c4)CC3)CC2)c(Cl)c1 [compound 91],> 100 nM
15,O=C(NCc1ccc(C(F)(F)F)cc1)c1cnc(N2CCN(C3CCN(Cc4ccc(F)c(F)c4)CC3)CC2)c(Cl)c1 [compound 92],> 100 nM
16,O=C(NCc1ccc(Cl)cc1F)c1cnc(N2CCN(C3CCN(Cc4ccc(Cl)c(F)c4)CC3)CC2)c(Cl)c1 [compound 93],> 100 nM
17,O=C(NCc1cccc(F)c1)c1cnc(N2CCN(C3CCN(Cc4ccc([N+](=O)[O-])cc4)CC3)CC2)c(Cl)c1 [compound 94],25 to 100 nM
18,O=C(NCc1cccc(F)c1)c1cnc(N2CCN(C3CCN(Cc4ccc(Cl)cc4)CC3)CC2)c(Cl)c1 [compound 95],25 to 100 nM
19,O=C(NCc1ccc(F)c(F)c1)c1cnc(N2CCN(C3CCN(Cc4ccc(F)cc4F)CC3)CC2)c(Cl)c1 [compound 96],25 to 100 nM
20,O=C(NCc1ccc(F)cc1F)c1cnc(N2CCN(C3CCN(Cc4ccc(Cl)cc4)CC3)CC2)c(Cl)c1 [compound 97],25 to 100 nM
21,O=C(NCc1ccc(C(F)(F)F)cc1)c1cnc(N2CCN(C3CCN(Cc4ccc([N+](=O)[O-])cc4)CC3)CC2)c(Cl)c1 [compound 98],25 to 100 nM
22,O=C(NCc1ccc(Br)cc1)c1cnc(N2CCN(C3CCN(Cc4ccc(F)c(F)c4)CC3)CC2)c(Cl)c1 [compound 99],25 to 100 nM
23,O=C(NCc1cccc(F)c1)c1cnc(N2CCN(C3CCN(Cc4ccc(Br)cc4)CC3)CC2)c(Cl)c1 [compound 100],25 to 100 nM
24,N#Cc1ccc(C(=O)N2CCC(N3CCN(c4ncc(C(=O)NCc5ccc(Cl)cc5)cc4Cl)CC3)CC2)cc1 [compound 101],25 to 100 nM
25,O=C(NCc1ccc(F)c(Cl)c1)c1cnc(N2CCN(C3CCN(Cc4ccc(F)cc4F)CC3)CC2)c(Cl)c1 [compound 102],25 to 100 nM
26,COc1ccc(CN2CCC(N3CCN(c4ncc(C(=O)NCc5ccc(Cl)cc5)cc4Cl)CC3)CC2)cc1 [compound 103],25 to 100 nM
27,CC(NC(=O)c1cnc(N2CCN(C3CCN(Cc4ccc(Cl)cc4)CC3)CC2)c(Cl)c1)c1ccccc1 (stereo not drawn) [compound 104],25 to 100 nM
